According to paper PMC7238114, “L-Type Amino Acid Transporter 1-Utilizing Prodrugs of Ketoprofen Can Efficiently Reduce Brain Prostaglandin Levels” (Pharmaceutics, 2020):

These compounds were tested on cyclooxygenase (COX; isoform not resolved, COX1/COX2) (assay: fluorometric COX peroxidase activity assay (Amplex Red) in BV2 cell lysate).
Type: biochemical

Structure (SMILES) | IC50 [nM]
CC(C(=O)O)c1cccc(C(=O)c2ccccc2)c1 (stereo not drawn) [KPF, ketoprofen] | 850 ± 1180
CC(C(=O)NCCCC[C@H](N)C(=O)O)c1cccc(C(=O)c2ccccc2)c1 (stereo partly drawn) [PD2, pro-drug 2] | 1050 ± 1210
CC(C(=O)NCC[C@H](N)C(=O)O)c1cccc(C(=O)c2ccccc2)c1 (stereo partly drawn) [PD3, pro-drug 3] | 2260 ± 1330
